Reference: ChEMBL document CHEMBL1201862, “PubChem BioAssay data set” (2004)
Active and inactive are the calls of the source.

Key:
[1] = P. falciparum Dd2 growth inhibitors, dose response, SYBR Green, cherry-picked samples (AID 1159567); assay type: functional, cell-based
[2] = HepG2 cell cytotoxicity, dose response, cytotoxicity control, plate reader, dry powder samples (AID 1159569); assay type: functional, cell-based;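 note: inhibitor potency with signal falling toward the positive control level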
[3] = P. falciparum 3D7-ScDHODH growth inhibitors, dose response, SYBR Green, dry powder samples (AID 1159570); assay type: functional, cell-based;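 note: parasite growth measured after 72 hours of compound exposure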
[4] = P. falciparum Dd2 growth inhibitors, dose response, SYBR Green, dry powder samples (AID 1159566); assay type: functional, cell-based;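 note: potency for growth inhibition with lower SYBR green DNA signal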
[5] = P. falciparum ATP4 D1247Y mutant growth inhibitors, dose response, NITD609-resistant line, SYBR Green, dry powder (AID 1159571); assay type: functional, cell-based;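 note: parasites synchronized at ring stage by sorbitol before testing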
[6] = target: T1, Tyrosine-protein phosphatase non-receptor type 7 (Homo sapiens, UniProt P35236); experiment: inhibitors of human HePTP phosphatase, […], biochemical, absorbance, leukemia target (AID 521); assay type: functional
T1 sequence (P35236 whole entry): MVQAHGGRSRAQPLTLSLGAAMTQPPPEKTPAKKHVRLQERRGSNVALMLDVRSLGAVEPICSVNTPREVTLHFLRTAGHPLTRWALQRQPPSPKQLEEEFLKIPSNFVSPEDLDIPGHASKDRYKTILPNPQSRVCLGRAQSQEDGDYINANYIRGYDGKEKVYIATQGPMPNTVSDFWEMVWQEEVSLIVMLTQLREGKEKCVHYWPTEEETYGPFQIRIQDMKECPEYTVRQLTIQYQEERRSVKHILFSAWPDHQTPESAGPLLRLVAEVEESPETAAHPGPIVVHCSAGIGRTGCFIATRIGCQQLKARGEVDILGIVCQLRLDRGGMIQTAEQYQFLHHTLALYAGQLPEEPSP

Leucine aminopeptidase = target: T2, Leucine aminopeptidase (Plasmodium falciparum 3D7, UniProt Q8IL11); experiment: P. falciparum M17LAP inhibitors, primary screen, biochemical, fluorogenic H-Leu-NHMec substrate, 1536-well (AID 1619); assay type: functional
T2 sequence (Q8IL11 whole entry): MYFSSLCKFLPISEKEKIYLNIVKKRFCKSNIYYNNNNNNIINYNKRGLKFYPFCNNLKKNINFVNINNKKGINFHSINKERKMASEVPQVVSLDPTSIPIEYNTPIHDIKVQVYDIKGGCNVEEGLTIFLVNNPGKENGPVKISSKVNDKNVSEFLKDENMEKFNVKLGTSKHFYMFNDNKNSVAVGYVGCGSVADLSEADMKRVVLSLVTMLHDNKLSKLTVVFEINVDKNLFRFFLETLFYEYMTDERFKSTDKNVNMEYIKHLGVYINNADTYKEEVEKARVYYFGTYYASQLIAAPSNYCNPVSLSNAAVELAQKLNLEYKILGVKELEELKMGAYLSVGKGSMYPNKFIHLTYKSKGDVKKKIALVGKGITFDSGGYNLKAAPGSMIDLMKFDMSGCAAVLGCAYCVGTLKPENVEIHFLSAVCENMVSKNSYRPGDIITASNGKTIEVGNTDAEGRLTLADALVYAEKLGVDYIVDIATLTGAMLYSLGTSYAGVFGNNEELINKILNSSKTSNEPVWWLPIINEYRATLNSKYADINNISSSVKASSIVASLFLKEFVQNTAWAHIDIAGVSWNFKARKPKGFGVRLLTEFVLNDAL

[7] = target: T3, Calpain-2 catalytic subunit (Sus scrofa, UniProt P43367); experiment: pig calpain II inhibitor potency, dose response, biochemical, fluorogenic peptide substrate (AID 1420); assay type: functional
T3 sequence (P43367 whole entry): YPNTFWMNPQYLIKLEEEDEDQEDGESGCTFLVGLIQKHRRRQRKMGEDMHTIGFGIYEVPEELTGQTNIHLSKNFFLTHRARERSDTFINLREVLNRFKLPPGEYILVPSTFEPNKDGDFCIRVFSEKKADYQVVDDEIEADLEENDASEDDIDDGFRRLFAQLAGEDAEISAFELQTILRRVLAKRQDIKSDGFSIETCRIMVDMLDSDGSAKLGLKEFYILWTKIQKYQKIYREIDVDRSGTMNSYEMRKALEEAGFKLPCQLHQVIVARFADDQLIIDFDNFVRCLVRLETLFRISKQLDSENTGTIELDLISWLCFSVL

[8] = growth suppression of PTEN-null colon cells, dose response, cell-based, HCT116 PTEN knockout (AID 1047); assay type: functional;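 note: HCT116 colon tumor cells with PTEN knocked out; cells exposed to compound for 60 hours before readout; potency for loss of cell viability measured by luminescence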
[9] = cytotoxicity in HPDE-C7 cells, cell-based, fluorescence, HTS (AID 430); assay type: functional; conditions: Homo sapiens
[10] = growth suppression of beta-catenin-knockout colon cells, dose response, cell-based, HCT116, human colon tumor (AID 1045); assay type: functional;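 note: HCT116 colon tumor cells with beta catenin knocked out; cells exposed to compound for 60 hours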
[11] = cytotoxicity in KRAS-transformed pancreatic duct cells, primary screen, cell-based, fluorescence, HTS (AID 431); assay type: functional; conditions: Homo sapiens;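 note: cell line used: HPDE-C7K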
[12] = target: T4, Replicative DNA helicase DnaB (Mycobacterium tuberculosis, UniProt P9WMR3); experiment: DnaB intein splicing inhibitors, dose response, biochemical, cell-free fluorescence (AID 449749); assay type: functional
T4 sequence (P9WMR3 whole entry): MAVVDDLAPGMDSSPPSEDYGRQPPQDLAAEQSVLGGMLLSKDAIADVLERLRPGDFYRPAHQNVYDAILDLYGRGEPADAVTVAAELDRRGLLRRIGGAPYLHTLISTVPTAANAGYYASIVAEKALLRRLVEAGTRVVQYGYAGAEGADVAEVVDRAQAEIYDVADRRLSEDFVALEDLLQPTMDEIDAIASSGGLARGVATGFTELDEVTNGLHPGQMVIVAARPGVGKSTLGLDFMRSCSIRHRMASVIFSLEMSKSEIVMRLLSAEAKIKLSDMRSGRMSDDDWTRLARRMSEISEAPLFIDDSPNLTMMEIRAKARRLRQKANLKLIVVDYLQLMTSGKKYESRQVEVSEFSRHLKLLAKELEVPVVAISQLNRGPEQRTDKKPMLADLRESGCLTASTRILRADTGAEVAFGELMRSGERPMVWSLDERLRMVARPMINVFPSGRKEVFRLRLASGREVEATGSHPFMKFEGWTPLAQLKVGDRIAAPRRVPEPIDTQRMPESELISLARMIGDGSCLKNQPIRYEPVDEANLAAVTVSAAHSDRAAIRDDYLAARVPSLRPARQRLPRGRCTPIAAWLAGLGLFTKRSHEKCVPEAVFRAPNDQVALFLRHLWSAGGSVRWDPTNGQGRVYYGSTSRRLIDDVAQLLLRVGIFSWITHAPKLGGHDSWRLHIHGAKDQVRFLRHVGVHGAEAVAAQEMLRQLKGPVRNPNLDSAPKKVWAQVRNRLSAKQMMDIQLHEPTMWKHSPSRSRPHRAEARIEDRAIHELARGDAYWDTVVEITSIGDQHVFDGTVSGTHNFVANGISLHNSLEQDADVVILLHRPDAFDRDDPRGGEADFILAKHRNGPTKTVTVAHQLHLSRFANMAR

Caspase-6 = target: T5, Caspase-6 (Homo sapiens, UniProt P55212); experiment: human caspase-6 inhibitors, dose response, biochemical, VEID-R110 fluorescence, cherry-pick (AID 720632)
T5 sequence (P55212 whole entry): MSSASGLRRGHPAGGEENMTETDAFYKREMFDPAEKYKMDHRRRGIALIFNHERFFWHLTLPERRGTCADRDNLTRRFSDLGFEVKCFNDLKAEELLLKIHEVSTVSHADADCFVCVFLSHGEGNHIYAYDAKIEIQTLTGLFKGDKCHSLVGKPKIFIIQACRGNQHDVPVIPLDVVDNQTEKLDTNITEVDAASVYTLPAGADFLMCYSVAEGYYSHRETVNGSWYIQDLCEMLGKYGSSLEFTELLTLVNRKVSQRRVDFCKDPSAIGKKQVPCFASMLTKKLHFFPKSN

Protein RecA = target: T6, Protein RecA (Mycobacterium tuberculosis, UniProt P9WHJ3); experiment: Fluorescence Cell-Free Homogeneous Dose Retest to Identify Inhibitors of RecA-Intein Splicing Activity. [Related pubchem assays (depositor defined):AID2097, AID2223, AID489010, AID492950]; assay type: functional
T6 sequence (P9WHJ3 whole entry): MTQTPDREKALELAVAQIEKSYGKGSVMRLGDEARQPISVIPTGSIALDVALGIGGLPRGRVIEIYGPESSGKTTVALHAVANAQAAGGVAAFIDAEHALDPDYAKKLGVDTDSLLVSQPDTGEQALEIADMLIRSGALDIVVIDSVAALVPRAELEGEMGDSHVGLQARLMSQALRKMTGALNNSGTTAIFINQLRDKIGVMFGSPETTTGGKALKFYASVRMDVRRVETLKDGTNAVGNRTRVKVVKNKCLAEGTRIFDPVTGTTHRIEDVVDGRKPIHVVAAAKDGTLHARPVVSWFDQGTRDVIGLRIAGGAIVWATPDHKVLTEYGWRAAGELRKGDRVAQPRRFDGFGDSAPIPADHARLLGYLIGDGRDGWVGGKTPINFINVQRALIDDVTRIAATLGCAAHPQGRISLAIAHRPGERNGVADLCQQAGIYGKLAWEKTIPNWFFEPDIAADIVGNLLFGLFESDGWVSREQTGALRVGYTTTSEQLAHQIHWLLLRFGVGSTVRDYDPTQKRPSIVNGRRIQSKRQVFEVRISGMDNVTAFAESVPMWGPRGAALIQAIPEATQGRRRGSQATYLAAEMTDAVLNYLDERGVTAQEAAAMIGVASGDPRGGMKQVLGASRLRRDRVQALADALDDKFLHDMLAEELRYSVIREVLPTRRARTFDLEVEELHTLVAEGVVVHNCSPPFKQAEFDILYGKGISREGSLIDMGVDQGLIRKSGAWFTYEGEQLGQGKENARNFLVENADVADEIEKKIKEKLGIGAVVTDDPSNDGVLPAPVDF

Q: With `C[C@H]1CN([C@@H](C)CO)C(=O)c2ccccc2-c2ccccc2CO[C@@H]1CN(C)C(=O)Nc1ccc(-c2ccccc2)cc1` as the compound, how does the AC50 [1] read?
A: The AC50 was 1.77 µM (active).

Q: And the AC50 [2]?
A: The AC50 was > 100 µM (inactive).

Q: What about the AC50 [3] of the same compound?
A: The AC50 was 1.35 µM (active).

Q: What about the AC50 [4] of the same compound?
A: Its AC50 is 0.723 µM (active).

Q: And the AC50 [5]?
A: Its AC50 is 1.56 µM (active).

Q: Which results are given for `O=C(O)C1CC=CCC1C(=O)Nc1ccc(F)c(F)c1` (centres undefined)?
A: IC50 [6]: > 100 µM (not active); IC50 (Leucine aminopeptidase): 20.4 µM (active)

Q: With `O=C(Nc1ccccn1)c1cccc(S(=O)(=O)N2CCCCC2)c1` as the compound, how does the IC50 [6] read?
A: The IC50 was > 100 µM (not active).

Q: For `CC(C)c1ccc(NC(S)=NC2CC3C=CC2C3)cc1` (centres undefined), which IC50 [7] is on record?
A: The IC50 was 42.5 µM (not active).

Q: Which IC50 [7] does the source give for `COC(=O)c1ccccc1NC(=O)N1CCN(c2ccc(F)cc2)CC1` here?
A: The IC50 was 8.67 µM (not active).

Q: With `O=C(CN1C(=O)C2C3c4ccccc4C(c4ccccc43)C2C1=O)N1CCOCC1` (centres undefined) as the compound, how does the IC50 [6] read?
A: The IC50 was > 100 µM (not active).

Q: For `Cc1cc(-c2nnc3n2N=C(c2ccc(-c4ccccc4)cc2)CS3)[nH]n1`, which IC50 [6] is on record?
A: The IC50 was > 100 µM (not active).

Q: What about the EC50 [8] of the same compound?
A: Its EC50 is 15.9 µM (active).

Q: What about the EC50 [9] of the same compound?
A: The EC50 was 15.2 µM (active).

Q: What about the EC50 [10] of the same compound?
A: The EC50 was 13.7 µM (active).

Q: And the EC50 [11]?
A: Its EC50 is 16.1 µM (active).

Q: With `O=C(Nc1ccc(Cl)c(Cl)c1)OCCNC(=O)c1cccc(Cl)c1` as the compound, how does the IC50 [7] read?
A: The IC50 was 2.99 µM (not active).

Q: Which results are given for `CC1=NN(c2ccc(S(=O)(=O)O)cc2Cl)C(=O)C1`?
A: AC50 [12]: 4.45 µM (active); AC50 (Caspase-6): 19 µM (active); EC50 (Protein RecA): 9.45 µM (active)

Q: Which AC50 [1] does the source give for `C[C@@H]1CN([C@H](C)CO)C(=O)c2cc(C#Cc3cccc(F)c3)cnc2O[C@@H]1CN(C)C(=O)C1CCCCC1` here?
A: The AC50 was 2.91 µM (active).

Q: And the AC50 [2]?
A: Its AC50 is 30.1 µM (active).

Q: And the AC50 [3]?
A: Its AC50 is 3.19 µM (active).

Q: What about the AC50 [4] of the same compound?
A: The AC50 was 2.16 µM (active).

Q: What about the AC50 [5] of the same compound?
A: The AC50 was 2.66 µM (active).

Q: Which AC50 [2] does the source give for `COc1ccccc1CN1CC2(C1)[C@H](c1ccccc1)[C@H](CO)N2Cc1ccccc1` here?
A: The AC50 was 23.9 µM (active).

Q: And the AC50 [3]?
A: Its AC50 is 4.14 µM (active).

Q: What about the AC50 [4] of the same compound?
A: The AC50 was 1.96 µM (active).

Q: What about the AC50 [5] of the same compound?
A: Its AC50 is 2.85 µM (active).
